Results on nine compounds are retold here after patent US20260297060A1, “COMPOUNDS FOR THE DEGRADATION OF MUTANT BRAF” (C4 THERAPEUTICS, INC., priority 2023, published 2026).

Read-outs that look alike come from different tables or passages of the source.

The target of this assay is T1, BRAF V600E (Homo sapiens, UniProt P15056+Q96SW2, V600E).
T1 construct: knock-in of the HiBiT tag to the endogenous BRAF V600E locus; host or cells: A375.10 (A375 clonal line, CRISPR HiBiT knock-in at the endogenous BRAF V600E locus)
The experiment in a line: BRAF V600E HiBiT Degradation Assay. Type of assay: cell-based. An outline of the steps:
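Endogenous HiBiT knock-in on BRAF V600E in A375 cells (clone A375.10); 11-point half-log series, top 10 μM, 2, 6 or 24 h at 37° C. Lytic HiBiT luminescence, background-subtracted, normalized to DMSO; 4-parameter fit gives DC50, Emax (residual protein) and IP (inflection point).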
Background: HiBiT is a short tag that completes a luciferase, so light tracks the accessible tagged protein.

Where [1] appears, read: A375.10 cells, BRAF V600E, 2 hours, inflection point, read-out: HiBiT-Degradation A375.10 BRAF 2 hours IP.
Setting [2] is: A375.10 cells, BRAF V600E, 2 hours, read-out: HiBiT-Degradation A375.10 BRAF 2 hours DC50.
[3] abbreviates: A375.10 cells, BRAF V600E, 6 hours, inflection point, read-out: HiBiT-Degradation A375.10 BRAF 6 hours IP.
Where [4] appears, read: A375.10 cells, BRAF V600E, 6 hours, read-out: HiBiT-Degradation A375.10 BRAF 6 hours DC50.
[5] abbreviates: A375.10 cells, BRAF V600E, 6 hours, residual protein remaining, read-out: HiBiT-Degradation A375.10 BRAF 6 hours Emax.
Setting [6] is: A375.10 cells, HiBiT, BRAF V600E, 24 hours, read-out: HiBiT-Degradation A375.10 BRAF 24 hours DC50.
The mark [7] stands for this setting: A375.10 cells, HiBiT, BRAF V600E, 24 hours, read-out: HiBiT-Degradation A375.10 BRAF 24 hours Emax.
Setting [8] is: A375.10 cells, HiBiT, BRAF V600E, 24 hours, read-out: HiBiT-Degradation A375.10 BRAF 24 hours IP.
Setting [9] is: read-out: HiBiT-Degradation A375.10 BRAF 2 hours Emax, A375.10 cells, BRAF V600E, 2 hours, residual protein remaining.
The mark [10] stands for this setting: A375.10 cells, BRAF V600E, 2 hours, residual protein remaining, read-out: HiBiT-Degradation A375.10 BRAF 2 hours Emax.

T1 sequence (P15056 whole entry V600E): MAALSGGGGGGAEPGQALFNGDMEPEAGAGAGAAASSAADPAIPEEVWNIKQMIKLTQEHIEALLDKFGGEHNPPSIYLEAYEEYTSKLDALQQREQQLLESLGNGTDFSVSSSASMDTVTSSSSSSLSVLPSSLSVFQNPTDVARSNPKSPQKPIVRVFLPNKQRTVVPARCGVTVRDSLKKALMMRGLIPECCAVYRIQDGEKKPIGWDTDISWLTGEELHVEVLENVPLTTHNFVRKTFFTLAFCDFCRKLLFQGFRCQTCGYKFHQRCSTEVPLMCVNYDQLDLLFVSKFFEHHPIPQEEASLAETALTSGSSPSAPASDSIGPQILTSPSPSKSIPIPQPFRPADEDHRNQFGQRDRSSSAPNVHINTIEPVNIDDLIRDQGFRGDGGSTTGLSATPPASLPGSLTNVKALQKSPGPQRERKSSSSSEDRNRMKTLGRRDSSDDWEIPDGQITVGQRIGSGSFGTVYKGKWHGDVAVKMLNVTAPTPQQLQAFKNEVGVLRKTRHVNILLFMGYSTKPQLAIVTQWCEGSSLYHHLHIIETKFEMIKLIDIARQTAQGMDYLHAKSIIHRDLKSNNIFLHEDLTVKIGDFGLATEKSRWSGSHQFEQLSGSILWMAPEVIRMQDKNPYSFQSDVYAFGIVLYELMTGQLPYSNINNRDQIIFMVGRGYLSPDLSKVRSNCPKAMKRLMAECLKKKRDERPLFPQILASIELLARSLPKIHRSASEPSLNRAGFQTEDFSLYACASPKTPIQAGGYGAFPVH
T1 sequence (Q96SW2 whole entry): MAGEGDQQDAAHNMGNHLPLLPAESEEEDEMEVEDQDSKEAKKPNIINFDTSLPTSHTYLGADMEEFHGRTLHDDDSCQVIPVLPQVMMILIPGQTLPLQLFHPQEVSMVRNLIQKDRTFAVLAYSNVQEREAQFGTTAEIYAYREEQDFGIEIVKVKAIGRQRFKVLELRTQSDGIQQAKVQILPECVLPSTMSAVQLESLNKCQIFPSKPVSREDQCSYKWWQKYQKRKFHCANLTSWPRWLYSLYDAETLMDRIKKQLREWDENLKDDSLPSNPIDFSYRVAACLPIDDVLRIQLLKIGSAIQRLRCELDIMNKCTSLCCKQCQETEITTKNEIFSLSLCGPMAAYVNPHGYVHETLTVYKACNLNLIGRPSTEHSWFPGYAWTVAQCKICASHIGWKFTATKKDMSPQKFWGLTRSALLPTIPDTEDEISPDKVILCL
T1 sequence (Q16531 whole entry partner): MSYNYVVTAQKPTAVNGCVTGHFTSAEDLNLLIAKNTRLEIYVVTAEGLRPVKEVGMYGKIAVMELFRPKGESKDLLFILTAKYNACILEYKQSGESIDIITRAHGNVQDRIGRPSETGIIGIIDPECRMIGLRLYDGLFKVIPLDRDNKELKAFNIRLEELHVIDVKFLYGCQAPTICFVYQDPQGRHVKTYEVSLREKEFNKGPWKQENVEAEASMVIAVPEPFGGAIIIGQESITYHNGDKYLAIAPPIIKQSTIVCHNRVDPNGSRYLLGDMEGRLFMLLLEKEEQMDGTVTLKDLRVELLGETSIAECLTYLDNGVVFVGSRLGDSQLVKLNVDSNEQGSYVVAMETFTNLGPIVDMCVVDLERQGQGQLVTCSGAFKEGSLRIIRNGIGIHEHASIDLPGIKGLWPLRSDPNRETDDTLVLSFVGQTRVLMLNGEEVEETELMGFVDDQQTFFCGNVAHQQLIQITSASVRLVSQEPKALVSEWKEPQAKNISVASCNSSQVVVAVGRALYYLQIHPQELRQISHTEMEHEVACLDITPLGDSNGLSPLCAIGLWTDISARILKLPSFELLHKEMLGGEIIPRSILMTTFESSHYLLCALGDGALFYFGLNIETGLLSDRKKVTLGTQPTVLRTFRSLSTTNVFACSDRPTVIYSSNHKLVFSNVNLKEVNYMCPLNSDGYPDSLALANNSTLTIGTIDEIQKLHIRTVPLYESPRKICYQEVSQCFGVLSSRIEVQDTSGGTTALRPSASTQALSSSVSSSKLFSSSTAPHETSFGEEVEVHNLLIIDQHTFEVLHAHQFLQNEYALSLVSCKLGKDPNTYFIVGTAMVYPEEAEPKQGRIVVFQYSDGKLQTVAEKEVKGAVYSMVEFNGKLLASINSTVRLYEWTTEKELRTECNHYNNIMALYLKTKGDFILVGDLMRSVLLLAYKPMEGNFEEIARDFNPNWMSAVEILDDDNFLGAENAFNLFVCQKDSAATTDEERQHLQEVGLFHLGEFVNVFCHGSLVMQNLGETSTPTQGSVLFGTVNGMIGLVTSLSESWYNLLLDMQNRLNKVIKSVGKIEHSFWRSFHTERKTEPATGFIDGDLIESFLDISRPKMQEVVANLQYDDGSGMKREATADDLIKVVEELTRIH

A word on the Emax: it is the maximal effect, on the per cent scale that the assay sets. Take `CN(CCO)S(=O)(=O)Nc1ccc(F)c(Oc2ccc3ncn(C4CC5(CCN(C6CCC(c7cc8c(cc7F)c(N7CCC(=O)NC7=O)nn8C)CC6F)CC5)C4)c(=O)c3c2)c1C#N` (single isomer, unassigned) [Compound 145, 6-[2-cyano-6-fluoro-3-[[2-hydroxyethyl(methyl)sulfamoyl]amino]phenoxy]-3-[7-[4-[3-(2,4-dioxohexahydropyrimidin-1-yl)-5-fluoro-1-methyl-indazol-6-yl]-2-fluoro-cyclohexyl]-7-azaspiro[3.5]nonan-2-yl]-4-oxo-quinazoline]: the DC50 by setting is: under setting [1], less than 1000 nM; under setting [2], less than 1000 nM; under setting [3], less than 1000 nM; under setting [4], less than 1000 nM; under setting [6], less than 1000 nM; under setting [8], less than 1000 nM. Also, the Emax is less than 50% under setting [5], less than 50% under setting [7] and less than 50% under setting [9].

On to `CCN(C)S(=O)(=O)Nc1ccc(F)c(Oc2ccc3ncc([C@H]4COC5(CCN(C6CCC(c7cc8c(cc7F)c(N7CCC(=O)NC7=O)nn8C)CC6F)CC5)C4)nc3c2)c1C#N` (single isomer, unassigned) [Compound 160], for which the DC50 reads like this: under setting [1], less than 1000 nM; under setting [2], less than 1000 nM. In addition, the Emax under setting [9] was less than 50%.

`CCN(C)S(=O)(=O)Nc1ccc(F)c(Oc2ccc3ncn(C4CC5(CCN(C6CCC(c7cc8c(cc7F)c(N7CCC(=O)NC7=O)nn8C)CC6)CC5)C4)c(=O)c3c2)c1F` (single isomer, unassigned) [Compound 178, 3-[7-[4-[3-(2,4-dioxohexahydropyrimidin-1-yl)-5-fluoro-1-methyl-indazol-6-yl]cyclohexyl]-7-azaspiro[3.5]nonan-2-yl]-6-[3-[[ethyl(methyl)sulfamoyl]amino]-2,6-difluoro-phenoxy]-4-oxo-quinazoline]: the DC50 is less than 1000 nM under setting [1]; less than 1000 nM under setting [2]; less than 1000 nM under setting [3]; less than 1000 nM under setting [4]; less than 1000 nM under setting [6]; less than 1000 nM under setting [8]. For the same compound, the Emax under setting [10] is less than 50%, the Emax under setting [5] was less than 50% and the Emax under setting [7] is less than 50%.

With `CCN(C)S(=O)(=O)Nc1ccc(F)c(Oc2ccc3ncc(C4CC5(CCN(C6CCC(c7cc8c(cc7F)c(N7CCC(=O)NC7=O)nn8C)CC6)CC5)C4)nc3c2)c1C#N` (single isomer, unassigned) [Compound 180, 7-[2-cyano-3-[[ethyl(methyl)sulfamoyl]amino]-6-fluoro-phenoxy]-2-[7-[4-[3-(2,4-dioxohexahydropyrimidin-1-yl)-5-fluoro-1-methyl-indazol-6-yl]cyclohexyl]-7-azaspiro[3.5]nonan-2-yl]quinoxaline], the DC50 is, setting by setting: under setting [1], less than 1000 nM; under setting [2], less than 1000 nM; under setting [3], less than 1000 nM; under setting [4], less than 1000 nM; under setting [6], less than 1000 nM; under setting [8], less than 1000 nM. Further, the Emax was less than 50% under setting [5], less than 50% under setting [7] and less than 50% under setting [9].

For `CCN(C)S(=O)(=O)Nc1ccc(F)c(C(=O)c2ccc3ncn(C4CC5(CCN(C6CCC(c7cc8c(cc7F)c(N7CCC(=O)NC7=O)nn8C)CC6)CC5)C4)c(=O)c3c2)c1F` (single isomer, unassigned) [Compound 182, 3-[7-[4-[3-(2,4-dioxohexahydropyrimidin-1-yl)-5-fluoro-1-methyl-indazol-6-yl]cyclohexyl]-7-azaspiro[3.5]nonan-2-yl]-6-[3-[[ethyl(methyl)sulfamoyl]amino]-2,6-difluoro-benzoyl]-4-oxo-quinazoline], the DC50 reads like this: under setting [1], less than 1000 nM; under setting [2], 1000 to 10000 nM; under setting [3], less than 1000 nM; under setting [4], less than 1000 nM; under setting [6], less than 1000 nM; under setting [8], less than 1000 nM. Also, the Emax runs as follows: under setting [10], 50 to 90%; under setting [5], less than 50%; under setting [7], less than 50%.

`CCN(C)S(=O)(=O)Nc1ccc(F)c(Oc2ccc3ncn(C4CC5(CCN(C6CCC(c7cc8c(cc7F)c(N7CCC(=O)NC7=O)nn8C)CC6F)CC5)C4)c(=O)c3c2)c1F` (single isomer, unassigned) [Compound 184]: the DC50 under setting [1] was less than 1000 nM; the DC50 under setting [2] was less than 1000 nM; the DC50 under setting [3] was less than 1000 nM; the DC50 under setting [4] is less than 1000 nM; the DC50 under setting [6] is less than 1000 nM; the DC50 under setting [8] is less than 1000 nM. For the same compound, the Emax by setting is: under setting [10], less than 50%; under setting [5], less than 50%; under setting [7], less than 50%.

Regarding `CCN(C)S(=O)(=O)Nc1ccc(F)c(Oc2ccc3ncn(C4CC5(C4)CN(C4CCC(c6cc7c(cc6F)c(N6CCC(=O)NC6=O)nn7C)CC4)C5)c(=O)c3c2)c1C#N` (single isomer, unassigned) [Compound 204, 6-[2-cyano-3-[[ethyl(methyl)sulfamoyl]amino]-6-fluoro-phenoxy]-3-[2-[4-[3-(2,4-dioxohexahydropyrimidin-1-yl)-5-fluoro-1-methyl-indazol-6-yl]cyclohexyl]-2-azaspiro[3.3]heptan-6-yl]-4-oxo-quinazoline], the “HiBiT-Degradation A375.10 BRAF 2 hours Emax” value is “*** (<=50%)”. The DC50 under setting [1] is less than 1000 nM. Moreover, the DC50 under setting [2] is less than 1000 nM. The “HiBiT-Degradation A375.10 BRAF 24 hours Emax” value (A375.10 cells, HiBiT, BRAF V600E, 24 hours) is recorded as “*** (<=50%)”. Also, the DC50 under setting [6] was less than 1000 nM. Besides, the DC50 under setting [8] is less than 1000 nM.

On to `CCN(C)S(=O)(=O)Nc1ccc(F)c(Oc2ccc3ncc(OC4CC5(CCN(C6CCC(c7cc8c(cc7F)c(N7CCC(=O)NC7=O)nn8C)CC6)CC5)C4)nc3c2)c1C#N` (single isomer, unassigned) [Compound 218, 7-[2-cyano-3-[[ethyl(methyl)sulfamoyl]amino]-6-fluoro-phenoxy]-2-[[7-[4-[3-(2,4-dioxohexahydropyrimidin-1-yl)-5-fluoro-1-methyl-indazol-6-yl]cyclohexyl]-7-azaspiro[3.5]nonan-2-yl]oxy]quinoxaline], for which the DC50 by setting is: under setting [1], less than 1000 nM; under setting [2], less than 1000 nM; under setting [6], less than 1000 nM; under setting [8], less than 1000 nM. The Emax is less than 50% under setting [7] and less than 50% under setting [9].

Regarding `CCN(C)S(=O)(=O)Nc1ccc(F)c(Oc2ccc3ncn([C@H]4COC5(CCN(C6CC7(C6)CN(c6cc8c(cc6F)c(N6CCC(=O)NC6=O)nn8C)C7)CC5)C4)c(=O)c3c2)c1C#N` [Compound 26, (3R)-3-[6-[2-cyano-3-[[ethyl(methyl)sulfamoyl]amino]-6-fluoro-phenoxy]-4-oxo-quinazolin-3-yl]-8-[2-[3-(2,4-dioxohexahydropyrimidin-1-yl)-5-fluoro-1-methyl-indazol-6-yl]-2-azaspiro[3.3]heptan-6-yl]-1-oxa-8-azaspiro[4.5]decane], the DC50 is less than 1000 nM under setting [1]; less than 1000 nM under setting [2]; less than 1000 nM under setting [3]; less than 1000 nM under setting [4]; less than 1000 nM under setting [6]; less than 1000 nM under setting [8]. In addition, the Emax is, setting by setting: under setting [5], less than 50%; under setting [7], less than 50%; under setting [9], less than 50%.
